Literature values as cited in PubChem BioAssay AID1259409 (Chemical Carcinogenesis Research Information System (CCRIS), 2018).

Test system: rodent chemically induced tumor inhibition, incidence and multiplicity
Assay: CCRIS tumor inhibitor studies

Compound: COc1ccc2[nH]cc(CCNC(C)=O)c2c1
- tumour outcome (control, treated, inhibition, significance) (Carcinogen: 1,2-DIMETHYLHYDRAZINE [540-73-8], Dose [Inhibitor]: 20 UG/ML IN DRINKING WATER 14 HR/D AT NIGHT TIME FOR 6 MONTHS (STUDY DURATION: 6 MONTHS), Route [Inhibitor]: ORAL, Species: RAT, Strain/Sex: LIO/FEMALE, Target Tissue: Type of Lesion: ASCENDING COLON: TUMOR, Dose [Carcinogen]: 21 MG/KG BW 1X/WK FOR 15 WK (STUDY DURATION: 6 MONTHS), Promoter: NONE): 23/25 (92.0%), 15/23 (65.2%), 29%, p<0.01
- tumour outcome (control, treated, inhibition, significance) (Carcinogen: 1,2-DIMETHYLHYDRAZINE [540-73-8], Dose [Inhibitor]: 20 UG/ML IN DRINKING WATER 14 HR/D AT NIGHT TIME FOR 6 MONTHS (STUDY DURATION: 6 MONTHS), Route [Inhibitor]: ORAL, Species: RAT, Strain/Sex: LIO/FEMALE, Target Tissue: Type of Lesion: DESCENDING COLON: TUMOR, Dose [Carcinogen]: 21 MG/KG BW 1X/WK FOR 15 WK (STUDY DURATION: 6 MONTHS), Promoter: NONE): 25/25 (100.0%), 23/23 (100.0%), 0%, not significant
- tumour outcome (control, treated, inhibition, significance) (Carcinogen: 1,2-DIMETHYLHYDRAZINE [540-73-8], Dose [Inhibitor]: 20 UG/ML IN DRINKING WATER 14 HR/D AT NIGHT TIME FOR 6 MONTHS (STUDY DURATION: 6 MONTHS), Route [Inhibitor]: ORAL, Species: RAT, Strain/Sex: LIO/FEMALE, Target Tissue: Type of Lesion: DUODENUM: TUMOR, Dose [Carcinogen]: 21 MG/KG BW 1X/WK FOR 15 WK (STUDY DURATION: 6 MONTHS), Promoter: NONE): 8/25 (32.0%), 5/23 (21.7%), 32%, not significant
- tumour outcome (control, treated, inhibition, significance) (Carcinogen: 1,2-DIMETHYLHYDRAZINE [540-73-8], Dose [Inhibitor]: 20 UG/ML IN DRINKING WATER 14 HR/D AT NIGHT TIME FOR 6 MONTHS (STUDY DURATION: 6 MONTHS), Route [Inhibitor]: ORAL, Species: RAT, Strain/Sex: LIO/FEMALE, Target Tissue: Type of Lesion: JEJUNUM AND ILIUM: TUMOR, Dose [Carcinogen]: 21 MG/KG BW 1X/WK FOR 15 WK (STUDY DURATION: 6 MONTHS), Promoter: NONE): 4/25 (16.0%), 1/23 (4.3%), 73%, p<0.05
- tumour outcome (control, treated, inhibition, significance) (Carcinogen: 1,2-DIMETHYLHYDRAZINE [540-73-8], Dose [Inhibitor]: 20 UG/ML IN DRINKING WATER 14 HR/D AT NIGHT TIME FOR 6 MONTHS (STUDY DURATION: 6 MONTHS), Route [Inhibitor]: ORAL, Species: RAT, Strain/Sex: LIO/FEMALE, Target Tissue: Type of Lesion: RECTUM: TUMOR, Dose [Carcinogen]: 21 MG/KG BW 1X/WK FOR 15 WK (STUDY DURATION: 6 MONTHS), Promoter: NONE): 11/25 (44.0%), 11/23 (47.8%), -9%, not significant
- tumour outcome (control, treated, inhibition, significance) (Carcinogen: 7, 12-DIMETHYLBENZ(A)ANTHRACENE [57-97-6], Dose [Inhibitor]: 20 UG/ML IN DRINKING WATER, 17 HR/D BEGINNING 5 D BEFORE FIRST CARCINOGEN DOSE FOR 13 WK (STUDY DURATION: 13 WK), Route [Inhibitor]: ORAL, Species: RAT, Strain/Sex: SPRAGUE-DAWLEY/FEMALE, Target Tissue: Type of Lesion: MAMMARY GLAND: TUMOR, Dose [Carcinogen]: 10 MG THREE TIMES BETWEEN POSTNATAL DAYS 45-59): 23/24 (95.8%), 21/28 (75%), 21.5%, p<0.05
- tumour outcome (control, treated, inhibition, significance) (Carcinogen: 7,12-DIMETHYLBENZ[A]ANTHRACENE [57-97-6], Dose [Inhibitor]: 10 MG/KG BW DAILY BETWEEN 45 AND 59 D OF AGE, Route [Inhibitor]: INTRAGASTRIC (GAVAGE) IN HYDROXYETHYLCELLULOSE SOLUTION, Species: RAT, Strain/Sex: SPRAGUE-DAWLEY/FEMALE, Target Tissue: Type of Lesion: MAMMARY: ADENOCARCINOMA, Dose [Carcinogen]: 75 MG/KG BW IN SESAME OIL AT 60 D OF AGE (STUDY DURATION: 1 YR)): 75%, 43%, 43%, p=0.04 (at 6 mo)
- tumour outcome (control, treated, inhibition, significance) (Carcinogen: 7,12-DIMETHYLBENZ[A]ANTHRACENE [57-97-6], Dose [Inhibitor]: 10 MG/KG BW DAILY FOR 6 MO AFTER CARCINOGEN ADMINISTRATION, Route [Inhibitor]: INTRAGASTRIC (GAVAGE), Species: RAT, Strain/Sex: SPRAGUE-DAWLEY/FEMALE, Target Tissue: Type of Lesion: MAMMARY: ADENOCARCINOMA, Dose [Carcinogen]: 75 MG/KG BW AT 55 D OF AGE (STUDY DURATION: 1 YR)): 75%, 35%, 53%, p=0.01 (at 6 mo)
- tumour outcome (control, treated, inhibition, significance) (Carcinogen: 7,12-DIMETHYLBENZ[A]ANTHRACENE [57-97-6], Dose [Inhibitor]: 20 UG/ML IN DRINKING WATER 15 HR/D FOR 4 MONTHS BEGINNING AT THE TIME OF THE FIRST CARCINOGEN DOSE (STUDY DURATION: 6 MO, Route [Inhibitor]: ORAL, Species: MOUSE, Strain/Sex: CBA/FEMALE, Target Tissue: Type of Lesion: VAGINA AND CERVIX: TUMOR, Dose [Carcinogen]: 0.1% IN TRIETHYLENEGLYCOL IN A POLYURETHANE SPONGE 3 HR/D 2 D/WK FOR 2 MONTHS (STUDY DURATION: 6 MO), Promoter: NONE): 7/20 (35%), 3/20 (15%), 57%, not significant
- tumour outcome (control, treated, inhibition, significance) (Carcinogen: 7,12-DIMETHYLBENZ[A]ANTHRACENE, 57-97-6, Dose [Inhibitor]: 0, 20 UG/ML IN DRINKING WATER 17 HR/D 4 D/WK FOR 26 WK BEGINNING 45 D OF AGE (STUDY DURATION: 26 WK), Route [Inhibitor]: ORAL, Species: RAT, Strain/Sex: SD/FEMALE, Target Tissue: Type of Lesion: MAMMARY GLAND: TUMOR, Dose [Carcinogen]: 10 UG/ANIMAL IN CORN OIL INTRAGASTRICALLY ON 45, 50, 55 D OF AGE): 100%, 42%, 58%, p<0.001
- tumour outcome (control, treated, inhibition, significance) (Carcinogen: 7,12-DIMETHYLBENZ[A]ANTHRACENE, 57-97-6, Dose [Inhibitor]: 0, 20 UG/ML IN DRINKING WATER FOR 17 HR/D FOR THE DURATION OF STUDY (STUDY DURATION: 180 D), Route [Inhibitor]: ORAL, Species: RAT, Strain/Sex: SPRAGUE-DAWLEY/FEMALE, Target Tissue: Type of Lesion: MAMMARY GLAND: TUMOR, Dose [Carcinogen]: 20 MG/ANIMAL GAVAGE ONCE 10 D POST INHIBITOR TREATMENT (STUDY DURATION: 178 D), Promoter: NONE): 16/24 (66.6%), 15/25 (60.0%), 10%, not significant
- tumour outcome (control, treated, inhibition, significance) (Carcinogen: GAMMA RAYS: 7,12-DIMETHYLBENZ[A]ANTHRACENE [57-97-6], Dose [Inhibitor]: 0, 100 UG/ML IN DRINKING WATER FOR 28 WK (STUDY DURATION: 28 WK), Route [Inhibitor]: ORAL, Species: RAT, Strain/Sex: WISTAR: HAN/FEMALE, Target Tissue: Type of Lesion: MAMMARY GLAND: TUMOR, Dose [Carcinogen]: 96 MGY FORM CO-60 SOURCE FOR 2 WK (TOTAL ACCUMULATED DOSE 1.44 GY), THEN 3 DOSES OF 10 MG DMBA BY GAVAGE (STUDY DURATION, Promoter: NONE): 48.3%, 50.0%, -3.5%, not significant
